In publication PMC11288027, “Exploring novel microbial metabolites and drugs for inhibiting Clostridioides difficile” (mSphere, 2024):
Read-outs that look alike come from different tables or passages of the source.

How the values were obtained:
L. rhamanosus = assay: MIC against human gut microbiota; format: cell-based, Lactobacillus rhamnoosus; details: L. rhamanosus ATCC-53103, MRS broth, 5% CO2
[1] = tested on: C. difficile ATCC BAA-1870; assay: MIC of active hits by broth microdilution; details: C. difficile ATCC BAA-1870, 48 h anaerobic
mycobacteria = tested on: mycobacteria; set-up: method as in PMID 33916775; details: cited from earlier work
E. faecium = assay: MIC against human gut microbiota; format: cell-based, Enterococcus faecium; details: E. faecium HM-202, TSB, aerobic
[2] = tested on: C. difficile clinical isolates; assay: MIC against a panel of 20 C. difficile clinical isolates (broth microdilution); format: cell-based, Clostridioides difficile; details: for MIC50: concentration that inhibited 50% of the 20 C. difficile clinical isolates; for MIC90: concentration that inhibited 90% of the 20 C. difficile clinical isolates; for MIC: read-out: minimum inhibitory concentration (MIC)
Bif. angulatum = assay: MIC against human gut microbiota; format: cell-based, Bifidobacterium angulatum; details: Bif. angulatum HM- 1189, BHIS broth, anaerobic
B. fragilis = assay: MIC against human gut microbiota; format: cell-based, Bacteroides fragilis; details: anaerobic; for MIC: Bacteroides fragilis, read-out: minimum inhibitory concentration (MIC)
Bif. adolescentis = assay: MIC against human gut microbiota; format: cell-based, Bifidobacterium adolescentis; details: Bif. adolescentis HM- 633, BHIS broth, anaerobic
L. brevis = assay: MIC against human gut microbiota; format: cell-based, Lactobacillus brevis; details: L. brevis ATCC-14864, MRS broth, 5% CO2
E. fecalis = assay: MIC against human gut microbiota; format: cell-based, Enterococcus faecalis; details: E. fecalis HM-970, TSB, aerobic
B. dorei = assay: MIC against human gut microbiota; format: cell-based, Bacteroides dorei; details: B. dorei HM- 719, BHIS broth, anaerobic
L. casei = assay: MIC against human gut microbiota; format: cell-based; details: L. casei ATCC 334, MRS broth, 5% CO2
Bif. breve = assay: MIC against human gut microbiota; format: cell-based, Bifidobacterium breve; details: Bif. breve ATCC 15700, BHIS broth, anaerobic
Bif. longum = assay: MIC against human gut microbiota; format: cell-based, Bifidobacterium longum; details: anaerobic; for MIC: Bifidobacterium longum, read-out: minimum inhibitory concentration (MIC)
Bifidobacterium species = assay: MIC against human gut microbiota, summary in text; format: cell-based; details: summary over the Bifidobacterium strains of Table 4
[3] = B. fragilis HM- 709, BHIS broth
[4] = B. fragilis HM- 718, BHIS broth
[5] = Bif. longum HM- 845, BHIS broth
[6] = Bif. longum HM- 846, BHIS broth
[7] = Bif. longum HM- 847, BHIS broth
[8] = Bif. longum HM- 848, BHIS broth

Milbemycin oxime
8 µg/mL: minimum inhibitory concentration (MIC) ([2]; C. difficile ATCC BAA-1870 (Ribotype-027), purchased compounds, panel test) | minimum inhibitory concentration (MIC) ([2]; C. difficile CD-13) | minimum inhibitory concentration (MIC) ([2]; C. difficile CD-22) | minimum inhibitory concentration (MIC) ([2]; C. difficile CD-28) | minimum inhibitory concentration (MIC) ([2]; C. difficile NR-49304) | minimum inhibitory concentration (MIC) ([2]; C. difficile NR-49319) | MIC90 [2] | minimum inhibitory concentration (MIC) (E. fecalis) | minimum inhibitory concentration (MIC) (Bif. longum; [5]) | minimum inhibitory concentration (MIC) (Bif. longum; [6]) | minimum inhibitory concentration (MIC) (Bif. longum; [7]) | minimum inhibitory concentration (MIC) (Bif. longum; [8])
32 µg/mL: minimum inhibitory concentration (MIC) (B. fragilis; [3])
4 µM: MIC (μM) [1]
4.39 µg/mL: MIC (μg/mL) [1]
4 µg/mL: minimum inhibitory concentration (MIC) (E. faecium) | minimum inhibitory concentration (MIC) ([2]; C. difficile ATCC 630) | minimum inhibitory concentration (MIC) ([2]; C. difficile ATCC 43255) | minimum inhibitory concentration (MIC) ([2]; C. difficile CD-1 (Ribotype-027)) | minimum inhibitory concentration (MIC) ([2]; C. difficile CD-6 (Ribotype-027)) | minimum inhibitory concentration (MIC) ([2]; C. difficile CD-10(Ribotype-027)) | minimum inhibitory concentration (MIC) ([2]; C. difficile CD-12) | minimum inhibitory concentration (MIC) ([2]; C. difficile CD-15) | minimum inhibitory concentration (MIC) ([2]; C. difficile CD-23) | minimum inhibitory concentration (MIC) ([2]; C. difficile CD-24) | minimum inhibitory concentration (MIC) ([2]; C. difficile CD-26 (Ribotype-027)) | minimum inhibitory concentration (MIC) ([2]; C. difficile CD-29 (Ribotype-027)) | minimum inhibitory concentration (MIC) ([2]; C. difficile CD-30) | minimum inhibitory concentration (MIC) ([2]; C. difficile NR-49302) | minimum inhibitory concentration (MIC) ([2]; C. difficile NR-49308) | MIC50 [2] | minimum inhibitory concentration (MIC) (Bif. angulatum) | minimum inhibitory concentration (MIC) (Bif. adolescentis) | minimum inhibitory concentration (MIC) (Bif. breve)
< 8 µg/mL: MIC (antimycobacterial activity) (mycobacteria)
>256 µg/mL: minimum inhibitory concentration (MIC) (L. rhamanosus) | minimum inhibitory concentration (MIC) (B. fragilis; [4]) | minimum inhibitory concentration (MIC) (L. brevis) | minimum inhibitory concentration (MIC) (B. dorei) | minimum inhibitory concentration (MIC) (L. casei)

CCCCc1oc2ccc(NS(C)(=O)=O)cc2c1C(=O)c1ccc(OCCCN(CCCC)CCCC)cc1 [Dronedarone]
64 µg/mL: MIC (L. casei; Lacticaseibacillus casei, ATCC334, read-out: minimum inhibitory concentration (MIC))
128 µg/mL: MIC (L. rhamanosus; Lactobacillus, ATCC53103, read-out: minimum inhibitory concentration (MIC))
4.45 µg/mL: MIC ([1]; Clostridioides difficile, ATCCBAA1870, 48 h)
2 to 8 µg/mL: MIC (Bifidobacterium species)
4 µg/mL: MIC50 ([2]; Clostridioides difficile, 48 h, read-out: MIC50) | MIC ([2]; Clostridioides difficile, ATCC630, C. difficile ATCC 630) | MIC ([2]; Clostridioides difficile, ATCC43255, C. difficile ATCC 43255) | MIC ([2]; Clostridioides difficile, ATCCBAA1870, C. difficile ATCC BAA-1870 (Ribotype-027), purchased compounds, panel test) | MIC ([2]; Clostridioides difficile, C. difficile CD-1 (Ribotype-027)) | MIC ([2]; Clostridioides difficile, C. difficile CD-6 (Ribotype-027)) | MIC ([2]; Clostridioides difficile, C. difficile CD-10(Ribotype-027)) | MIC ([2]; Clostridioides difficile, C. difficile CD-12) | MIC ([2]; Clostridioides difficile, C. difficile CD-13) | MIC ([2]; Clostridioides difficile, C. difficile CD-15) | MIC ([2]; Clostridioides difficile, C. difficile CD-26 (Ribotype-027)) | MIC ([2]; Clostridioides difficile, C. difficile NR-49302) | MIC ([2]; Clostridioides difficile, C. difficile NR-49308) | MIC50 ([2]; Clostridioides difficile, read-out: MIC50) | MIC (E. fecalis; Enterococcus faecalis, read-out: minimum inhibitory concentration (MIC))
8 µM: MIC (μM) [1]
8 µg/mL: MIC (E. faecium; Enterococcus faecium, read-out: minimum inhibitory concentration (MIC)) | MIC ([2]; Clostridioides difficile, C. difficile CD-23) | MIC ([2]; Clostridioides difficile, C. difficile CD-28) | MIC ([2]; Clostridioides difficile, C. difficile CD-30) | MIC ([2]; Clostridioides difficile, C. difficile NR-49319) | MIC90 ([2]; Clostridioides difficile, read-out: MIC90) | MIC (Bif. angulatum; Bifidobacterium angulatum, read-out: minimum inhibitory concentration (MIC)) | MIC (B. fragilis; [3]) | MIC (B. fragilis; [4]) | MIC (Bif. adolescentis; Bifidobacterium adolescentis, read-out: minimum inhibitory concentration (MIC)) | MIC (B. dorei; Phocaeicola dorei, read-out: minimum inhibitory concentration (MIC)) | MIC (Bif. breve; Bifidobacterium breve, ATCC15700, read-out: minimum inhibitory concentration (MIC)) | MIC (Bif. longum; [5]) | MIC (Bif. longum; [6]) | MIC (Bif. longum; [7]) | MIC (Bif. longum; [8])
32 µg/mL: MIC (L. brevis; Levilactobacillus brevis, ATCC14864, read-out: minimum inhibitory concentration (MIC))
2 µg/mL: MIC ([2]; Clostridioides difficile, C. difficile CD-22) | MIC ([2]; Clostridioides difficile, C. difficile CD-24) | MIC ([2]; Clostridioides difficile, C. difficile CD-29 (Ribotype-027)) | MIC ([2]; Clostridioides difficile, C. difficile NR-49304)
